{
  "source": "patent US8193189B2",
  "about": "“Quinoxaline derivatives as tyrosine kinase activity inhibitors” (Novartis AG, priority 2007, dated 2012)",
  "key": {"GST-JAK1(866-1154)": {"biological_target": "T1, GST-JAK1(866-1154) (Homo sapiens, UniProt P23458)", "T1 construct": "GST-JAK1(866-1154); made in house", "T1 sequence (P23458 866-1154)": "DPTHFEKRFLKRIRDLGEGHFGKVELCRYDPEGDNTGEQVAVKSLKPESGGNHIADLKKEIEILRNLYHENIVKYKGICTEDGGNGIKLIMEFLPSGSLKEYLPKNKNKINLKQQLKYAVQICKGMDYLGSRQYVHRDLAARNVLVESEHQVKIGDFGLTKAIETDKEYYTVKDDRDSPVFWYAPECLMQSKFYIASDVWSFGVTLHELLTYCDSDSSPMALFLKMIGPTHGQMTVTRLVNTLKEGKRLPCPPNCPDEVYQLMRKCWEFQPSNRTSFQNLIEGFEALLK", "assay": "EPK JAK-family kinases profiling assay (Caliper mobility shift), JAK1", "type": "biochemical", "conditions": "ATP 40 μM, 50 nM kinase", "procedure,_shortened": "(§1)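 Turnover was read as substrate/product ratio after mobility-shift capillary-like separation of each reaction, run for 60 min at 30 °C with GST-tagged kinase domain, labelled peptide and ATP, and terminated with EDTA stop buffer.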"}, "GST-JAK2(808-1132)": {"biological_target": "T2, GST-JAK2(808-1132) (Homo sapiens, UniProt O60674)", "T2 construct": "GST-JAK2(808-1132); purchased Invitrogen (Carlsbad, USA) #4288", "T2 sequence (O60674 808-1132)": "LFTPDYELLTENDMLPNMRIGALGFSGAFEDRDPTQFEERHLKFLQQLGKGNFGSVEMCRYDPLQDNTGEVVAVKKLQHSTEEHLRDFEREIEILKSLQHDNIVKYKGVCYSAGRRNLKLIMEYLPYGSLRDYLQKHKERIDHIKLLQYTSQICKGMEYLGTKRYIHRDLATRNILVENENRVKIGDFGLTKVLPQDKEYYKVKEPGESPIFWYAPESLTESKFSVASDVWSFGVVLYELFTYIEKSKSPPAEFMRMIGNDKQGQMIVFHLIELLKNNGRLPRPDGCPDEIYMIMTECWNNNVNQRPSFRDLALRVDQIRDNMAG", "assay": "EPK JAK-family kinases profiling assay (Caliper mobility shift), JAK2", "type": "biochemical", "conditions": "ATP 20 μM, 1.8 nM kinase", "procedure,_shortened": "as §1"}, "GST-JAK3(811-1124)": {"biological_target": "T3, GST-JAK3(811-1124) (Homo sapiens, UniProt P52333)", "T3 construct": "GST-JAK3(811-1124); made in house", "T3 sequence (P52333 811-1124)": "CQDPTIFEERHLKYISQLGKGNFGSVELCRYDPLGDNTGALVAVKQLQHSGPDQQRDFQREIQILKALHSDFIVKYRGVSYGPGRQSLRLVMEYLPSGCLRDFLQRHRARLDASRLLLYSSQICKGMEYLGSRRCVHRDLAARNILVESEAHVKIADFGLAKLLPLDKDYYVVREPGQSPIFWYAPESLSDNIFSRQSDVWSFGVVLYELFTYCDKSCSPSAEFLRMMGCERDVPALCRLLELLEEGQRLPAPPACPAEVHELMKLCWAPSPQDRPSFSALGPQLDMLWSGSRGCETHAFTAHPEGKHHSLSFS", "assay": "EPK JAK-family kinases profiling assay (Caliper mobility shift), JAK3", "type": "biochemical", "conditions": "ATP 80 μM, 6 nM kinase", "procedure,_shortened": "as §1"}, "[1]": {"test_system": "JAK/STAT pathway (JAK1/JAK2-dependent nuclear translocation of STAT1-GFP)", "assay": "Inhibition of the JAK/STAT pathway: IFN-γ stimulated nuclear translocation of STAT1-GFP in HT1080 fibrosarcoma cells", "type": "cell-based", "conditions": "Homo sapiens, HT-1080; HT1080 STAT1-GFP cells, 100 ng/ml IFN-γ 2 hours, compound added 30 min before; read-out: STAT1translo IC50", "procedure,_shortened": "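HT1080 cells stably expressing STAT1-GFP, compounds added 30 min before IFN-γ stimulation at final 10 μM down to 0.003 μM (0.1% DMSO). Nuclear-cytoplasmic GFP intensity differential quantified by automated imaging with Hoechst nuclear mask, ≥1000 cells per well, averaged per well.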"}},
  "data": [
    {"smiles": "Cc1cc(-c2cnc3cccc(-c4cc(F)c(CN5CCOCC5)c(F)c4)c3n2)ccc1C(=O)N1CCCC1", "note": "[Example 66, {4-[8-(3,5-Difluoro-4-morpholin-4-ylmethyl-phenyl)-quinoxalin-2-yl]-2-methyl-phenyl}-pyrrolidin-1-yl-methanone]", "values": [
      {"measurement": "IC50", "setting": "GST-JAK1(866-1154)", "result": 140, "unit": "nM"},
      {"measurement": "IC50", "setting": "GST-JAK2(808-1132)", "result": 6.05, "unit": "nM"},
      {"measurement": "IC50", "setting": "GST-JAK3(811-1124)", "result": 250, "unit": "nM"},
      {"measurement": "IC50", "setting": "[1]", "result": 1000, "unit": "nM"}
    ]},
    {"smiles": "Cc1cc(-c2cnc3cccc(-c4ccc(CN5CCS(=O)(=O)CC5)c(Cl)c4)c3n2)ccc1C(=O)N1CCCC1", "note": "[Example 67, (4-{8-[3-Chloro-4-(1,1-dioxido-thiomorpholin-4-ylmethyl)-phenyl]-quinoxalin-2-yl}-2-methyl-phenyl)-pyrrolidin-1-yl-methanone]", "values": [
      {"measurement": "IC50", "setting": "GST-JAK1(866-1154)", "result": 96.5, "unit": "nM"},
      {"measurement": "IC50", "setting": "GST-JAK2(808-1132)", "result": "< 3", "unit": "nM"},
      {"measurement": "IC50", "setting": "GST-JAK3(811-1124)", "result": 405, "unit": "nM"},
      {"measurement": "IC50", "setting": "[1]", "result": 475, "unit": "nM"}
    ]},
    {"smiles": "Cc1cc(-c2cnc3cccc(-c4ccc(C(=O)N5CCCC5)c(C)c4)c3n2)ccc1C(=O)N1CCCC1", "note": "[Example 68, (2-Methyl-4-{3-[3-methyl-4-(pyrrolidine-1-carbonyl)-phenyl]-quinoxalin-5-yl}-phenyl)-pyrrolidin-1-yl-methanone]", "values": [
      {"measurement": "IC50", "setting": "GST-JAK1(866-1154)", "result": 2300, "unit": "nM"},
      {"measurement": "IC50", "setting": "GST-JAK2(808-1132)", "result": 109, "unit": "nM"},
      {"measurement": "IC50", "setting": "GST-JAK3(811-1124)", "result": 6850, "unit": "nM"},
      {"measurement": "IC50", "setting": "[1]", "result": 4890, "unit": "nM"}
    ]},
    {"smiles": "Cc1cc(-c2cnc3cccc(-c4ccc(CC(=O)N5CCS(=O)(=O)CC5)c(F)c4)c3n2)ccc1CN1CCOCC1", "note": "[Example 69, 1-(1,1-Dioxido-thiomorpholin-4-yl)-2-{2-fluoro-4-[3-(3-methyl-4-morpholin-4-ylmethyl-phenyl)-quinoxalin-5-yl]-phenyl}-ethanone]", "values": [
      {"measurement": "IC50", "setting": "GST-JAK1(866-1154)", "result": 75, "unit": "nM"},
      {"measurement": "IC50", "setting": "GST-JAK2(808-1132)", "result": 6.7, "unit": "nM"},
      {"measurement": "IC50", "setting": "GST-JAK3(811-1124)", "result": 890, "unit": "nM"},
      {"measurement": "IC50", "setting": "[1]", "result": 530, "unit": "nM"}
    ]},
    {"smiles": "Cc1cc(-c2cnc3cccc(-c4ccc(CC(=O)N5CCS(=O)(=O)CC5)c(F)c4)c3n2)ccc1Cn1ccnc1", "note": "[Example 72, 1-(1,1-Dioxido-thiomorpholin-4-yl)-2-{2-fluoro-4-[3-(4-imidazol-1-ylmethyl-3-methyl-phenyl)-quinoxalin-5-yl]-phenyl}-ethanone]", "values": [
      {"measurement": "IC50", "setting": "GST-JAK1(866-1154)", "result": 110, "unit": "nM"},
      {"measurement": "IC50", "setting": "GST-JAK2(808-1132)", "result": 5.7, "unit": "nM"},
      {"measurement": "IC50", "setting": "GST-JAK3(811-1124)", "result": 670, "unit": "nM"},
      {"measurement": "IC50", "setting": "[1]", "result": 1120, "unit": "nM"}
    ]},
    {"smiles": "O=C(c1ccc(-c2cccc3ncc(-c4ccc(OCCCN5CCOCC5)cc4)nc23)cc1F)N1CCS(=O)(=O)CC1", "note": "[Example 73, (1,1-Dioxido-thiomorpholin-4-yl)-(2-fluoro-4-{3-[4-(3-morpholin-4-yl-propoxy)-phenyl]-quinoxalin-5-yl}-phenyl)-methanone]", "values": [
      {"measurement": "IC50", "setting": "GST-JAK1(866-1154)", "result": 190, "unit": "nM"},
      {"measurement": "IC50", "setting": "GST-JAK2(808-1132)", "result": 28, "unit": "nM"},
      {"measurement": "IC50", "setting": "GST-JAK3(811-1124)", "result": 370, "unit": "nM"},
      {"measurement": "IC50", "setting": "[1]", "result": "> 10000", "unit": "nM"}
    ]},
    {"smiles": "O=C(Cc1ccc(-c2cccc3ncc(-c4ccc(OCCCN5CCOCC5)cc4)nc23)cc1)N1CCOCC1", "note": "[Example 74, 1-Morpholin-4-yl-2-(4-{3-[4-(3-morpholin-4-yl-propoxy)-phenyl]-quinoxalin-5-yl}-phenyl)-ethanone]", "values": [
      {"measurement": "IC50", "setting": "GST-JAK1(866-1154)", "result": 310, "unit": "nM"},
      {"measurement": "IC50", "setting": "GST-JAK2(808-1132)", "result": 25, "unit": "nM"},
      {"measurement": "IC50", "setting": "GST-JAK3(811-1124)", "result": 1300, "unit": "nM"},
      {"measurement": "IC50", "setting": "[1]", "result": 2610, "unit": "nM"}
    ]},
    {"smiles": "O=C(c1ccc(-c2cccc3ncc(-c4ccc(OCCCN5CCOCC5)cc4)nc23)cc1F)N1CCOCC1", "note": "[Example 75, (2-Fluoro-4-{3-[4-(3-morpholin-4-yl-propoxy)-phenyl]-quinoxalin-5-yl}-phenyl)-morpholin-4-yl-methanone]", "values": [
      {"measurement": "IC50", "setting": "GST-JAK1(866-1154)", "result": 410, "unit": "nM"},
      {"measurement": "IC50", "setting": "GST-JAK2(808-1132)", "result": 34, "unit": "nM"},
      {"measurement": "IC50", "setting": "GST-JAK3(811-1124)", "result": 1700, "unit": "nM"},
      {"measurement": "IC50", "setting": "[1]", "result": "> 10000", "unit": "nM"}
    ]},
    {"smiles": "Cc1cc(-c2cnc3cccc(-c4ccc(CC(=O)N5CCOCC5)c(F)c4)c3n2)ccc1OCCCN1CCOCC1", "note": "[Example 76, 2-(2-Fluoro-4-{3-[3-methyl-4-(3-morpholin-4-yl-propoxy)-phenyl]-quinoxalin-5-yl}-phenyl)-1-morpholin-4-yl-ethanone]", "values": [
      {"measurement": "IC50", "setting": "GST-JAK1(866-1154)", "result": 690, "unit": "nM"},
      {"measurement": "IC50", "setting": "GST-JAK2(808-1132)", "result": 59.5, "unit": "nM"},
      {"measurement": "IC50", "setting": "GST-JAK3(811-1124)", "result": 4100, "unit": "nM"},
      {"measurement": "IC50", "setting": "[1]", "result": 5990, "unit": "nM"}
    ]},
    {"smiles": "CCN1CCN(C(=O)c2ccc(-c3cnc4cccc(-c5ccc(C(C)(C)N6CCOCC6)c(C)c5)c4n3)cc2C)CC1", "note": "[Example 80, (4-Ethyl-piperazin-1-yl)-(2-methyl-4-{8-[3-methyl-4-(1-methyl-1-morpholin-4-yl-ethyl)-phenyl]-quinoxalin-2-yl}-phenyl)-methanone]", "values": [
      {"measurement": "IC50", "setting": "GST-JAK1(866-1154)", "result": 3800, "unit": "nM"},
      {"measurement": "IC50", "setting": "GST-JAK2(808-1132)", "result": 75, "unit": "nM"},
      {"measurement": "IC50", "setting": "GST-JAK3(811-1124)", "result": 4550, "unit": "nM"},
      {"measurement": "IC50", "setting": "[1]", "result": 1550, "unit": "nM"}
    ]},
    {"smiles": "CCN1CCN(C(=O)c2ccc(-c3cnc4cccc(-c5ccc(C(C)(C)N6CCS(=O)(=O)CC6)c(C)c5)c4n3)cc2C)CC1", "note": "[Example 81, [4-(8-{4-[1-(1,1-Dioxido-thiomorpholin-4-yl)-1-methyl-ethyl]-3-methyl-phenyl}-quinoxalin-2-yl)-2-methyl-phenyl]-(4-ethyl-piperazin-1-yl)-methanone]", "values": [
      {"measurement": "IC50", "setting": "GST-JAK1(866-1154)", "result": 1150, "unit": "nM"},
      {"measurement": "IC50", "setting": "GST-JAK2(808-1132)", "result": 16.5, "unit": "nM"},
      {"measurement": "IC50", "setting": "GST-JAK3(811-1124)", "result": 780, "unit": "nM"},
      {"measurement": "IC50", "setting": "[1]", "result": 389, "unit": "nM"}
    ]},
    {"smiles": "CCN1CCN(C(=O)c2ccc(-c3cnc4cccc(-c5cc(F)c(CN6CCOCC6)c(F)c5)c4n3)cc2C)CC1", "note": "[Example 82, {4-[8-(3,5-Difluoro-4-morpholin-4-ylmethyl-phenyl)-quinoxalin-2-yl]-2-methyl-phenyl}-(4-ethyl-piperazin-1-yl)-methanone]", "values": [
      {"measurement": "IC50", "setting": "GST-JAK1(866-1154)", "result": 490, "unit": "nM"},
      {"measurement": "IC50", "setting": "GST-JAK2(808-1132)", "result": 14, "unit": "nM"},
      {"measurement": "IC50", "setting": "GST-JAK3(811-1124)", "result": 1250, "unit": "nM"},
      {"measurement": "IC50", "setting": "[1]", "result": 946, "unit": "nM"}
    ]}
  ]
}
